Assay: Solubility test of compound in safe solvent
Type: physicochemical
Settings: 23° C., ultrasonic wave 30 minutes, visually evaluated; for CHN (dissolution amount): cyclohexanone; for PGME (dissolution amount): propylene glycol monomethyl ether
Description: The compound was precisely weighed in a test tube at 23° C.; and the target solvent was added to the compound so that a predetermined concentration of the liquid to be obtained is set; a ultrasonic wave was applied to the liquid in an ultrasonic washing machine for 30 minutes; and the state of the resulting liquid was visually evaluated.
The solubility of the compound in propylene glycol monomethyl ether (PGME) and cyclohexanone (CHN) was evaluated according to the following standard using the dissolution amount in each solvent. • A: 5.0% by weight≦dissolution amount • B: 3.0% by weight≦dissolution amount<5.0% by weight • C: dissolution amount<3.0% by weight • (2) Resolution, Shape, Roughness (LER), and Sensitivity of Resist Pattern
The dissolution amounts of compounds obtained in the above Synthesis Examples 1 and 2 and Synthesis Comparative Example 1 in propylene glycol monomethyl ether (PGME) and cyclohexanone (CHN) were evaluated using the above evaluation method and standard.

Row | CHN (dissolution amount) | PGME (dissolution amount) | Structure (SMILES)
1 | A (5.0% by weight≦dissolution amount) | A (5.0% by weight≦dissolution amount) | Oc1cc(O)c2cc1C(c1ccc(CI)cc1)c1cc(c(O)cc1O)C(c1ccc(CI)cc1)c1cc(c(O)cc1O)C(c1ccc(CI)cc1)c1cc(c(O)cc1O)C2c1ccc(CI)cc1 (stereo not drawn) [CR-2]
2 | A (5.0% by weight≦dissolution amount) | A (5.0% by weight≦dissolution amount) | Oc1cc(O)c2cc1C(c1ccc(I)cc1)c1cc(c(O)cc1O)C(c1ccc(I)cc1)c1cc(c(O)cc1O)C(c1ccc(I)cc1)c1cc(c(O)cc1O)C2c1ccc(I)cc1 (stereo not drawn) [CR-1]

Row | Structure (SMILES) | CHN (dissolution amount) | PGME (dissolution amount)
3 | Oc1cc(O)c2cc1C(c1ccc(C3CCCCC3)cc1)c1cc(c(O)cc1O)C(c1ccc(C3CCCCC3)cc1)c1cc(c(O)cc1O)C(c1ccc(C3CCCCC3)cc1)c1cc(c(O)cc1O)C2c1ccc(C2CCCCC2)cc1 (stereo not drawn) [CR-1A, reference compound] | C (dissolution amount<3.0% by weight) | B (3.0% by weight≦dissolution amount<5.0% by weight)

Reference: patent publication US9122153B2, “Cyclic compound, method for producing same, composition, and method for forming resist pattern” (MITSUBISHI GAS CHEMICAL COMPANY, INC., priority 2011, dated 2015)
